The values below are quoted from earlier work in US6387950B2, “Treatment of tumors with RARα selective retinoid compounds in combination with other anti-tumor agents” (Allergan Sales, Inc., priority 2000, dated 2002).

For one series, the target named is T1, RARγ receptors (Homo sapiens, UniProt P13631).
T1 sequence (P13631 1-454): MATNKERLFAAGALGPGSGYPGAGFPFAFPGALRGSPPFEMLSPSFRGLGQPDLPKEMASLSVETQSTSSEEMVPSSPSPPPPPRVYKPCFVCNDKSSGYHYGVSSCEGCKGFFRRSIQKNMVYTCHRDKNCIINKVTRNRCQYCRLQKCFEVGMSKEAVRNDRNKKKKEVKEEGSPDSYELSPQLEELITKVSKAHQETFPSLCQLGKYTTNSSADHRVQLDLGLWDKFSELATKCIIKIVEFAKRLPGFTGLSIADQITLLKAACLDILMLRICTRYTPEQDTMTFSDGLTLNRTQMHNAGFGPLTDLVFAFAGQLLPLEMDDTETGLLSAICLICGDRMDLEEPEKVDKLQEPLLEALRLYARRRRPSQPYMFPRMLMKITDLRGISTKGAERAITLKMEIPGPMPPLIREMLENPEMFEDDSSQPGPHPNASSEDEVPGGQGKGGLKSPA
The note with it: Fanjul et al. 1996; cited from earlier work.

The next series has as its system carcinoma cell lines. The note with it: in some of the cell lines; Fanjul et al. 1996; cited from earlier work.
Series [1] has as its system MCF-7 human carcinoma cell lines. The note with it: Kurbacher et al. 1996; cited from earlier work.
The test system of series [2] is MDA-MB 231 human carcinoma cell lines. The note with it: Kurbacher et al. 1996; cited from earlier work.
Series [3] deals with MCF-7 human breast cancer lines. The note with it: Toma et al. 1997; cited from earlier work.

In the case of `COC(=O)c1ccc(/C(C)=C/c2ccc3c(c2)C(C)(C)CCC3(C)C)cc1` [SRI 11220], the receptor activity entry on RARγ receptors is “RARγ agonist”. In addition, in the series with carcinoma cell lines, the “anti-proliferative activity in combination with interferon” value is reported as “synergistic”.

As to `O=C1O[C@H]([C@@H](O)CO)C(O)=C1O` [vitamin C], the “action with certain chemotherapeutic anti-tumor agents” value in series [1] and in series [2] was “synergistic action” throughout.

On to `CC1=C(/C=C/C(C)=C/C=C/C(C)=C/C(=O)O)C(C)(C)CCC1` [all trans retinoic acid], for which, in series [3], the “effect in combination with tamoxifen (TAM)” value is on record as “synergistic effect” and the “effect in combination with α interferon (α IFN)” value was “synergistic effects”.
